Experimental data from US4038480A, “6-Aminocarbonyl purine 3',5'-cyclic nucleotides” (ICN Pharmaceuticals, Inc., priority 1973, dated 1977).
Structures can show the parent of a compound that is named as a salt.

Tests used:
[1] = system: steroidogenisis; assay: Activation of steroidogenesis
[2] = system: rabbit kidney high Km C-AMP phosphodiesterase; assay: Vulnerability to degradation (hydrolysis) by high Km C-AMP phosphodiesterase; type: biochemical; details: for resistance to hydrolysis compared with C-AMP: rabbit kidney high Km phosphodiesterase
Source text: In fact, hydrolysis to any appreciable extent could be detected only in the case of compound 8 (hydrolysis at a rate only 8% that of C-AMP).

[3] = system: lipolysis; assay: Activation of lipolysis
[4] = Lowering of blood pressure; details: in vivo
[5] = biological target: bovine brain C-AMP dependent kinase; assay: Activation of C-AMP dependent protein kinase; type: biochemical; details: for kinase activation compared with C-AMP: bovine brain kinase, comparison in words
Description: Preferred carbamoyl compounds prepared as in the preceding examples were assayed for ability to activate protein kinase by the procedure described in K. Muneyama et al, Biochem. 10, 2390 (1971), using bovine brain C-AMP dependent kinase purified according to Kuo & Greengard, in Proc. Nat. Acad. Sci. U.S.A. 64, 1349 (1969). […] K. Muneyama et al, supra.

[6] = biological target: rabbit lung cAMP phosphodiesterase; assay: Inhibition of rabbit lung cAMP phosphodiesterase; type: biochemical; details: read-out: I50, Rabbit Lung
Source text: (§1) The results appear in Table I below.

[7] = system: adenyl cyclase; assay: Inhibition of adenyl cyclase; type: biochemical
[8] = biological target: beef heart cAMP phosphodiesterase; assay: Inhibition of beef heart cAMP phosphodiesterase; type: biochemical; details: read-out: I50, Beef Heart
Source text: as §1

[9] = system: bovine brain C-AMP dependent kinase; details: relative to C-AMP; K. Muneyama et al; cited from earlier work
[10] = Inotropic action (cardiac output, heart rate); type: in vivo; details: inotropic agent

Row | SMILES | activation of steroidogenesis, concentration compared with C-AMP [1] | resistance to hydrolysis compared with C-AMP [2] | activation of lipolysis, concentration compared with C-AMP [3] | lowering of blood pressure [4] | IC50 [6] [µM] | IC50 [8] [µM] | also measured
1 | CCCNC(=O)Nc1ncnc2c1ncn2[C@@H]1O[C@@H]2COP(=O)(O)O[C@H]2[C@H]1O [Compound 6, N^6-(N-Propylcarbamoyl) adenosine 3',5'-cyclic phosphate] | at concentrations substantially lower than C-AMP | more resistant to hydrolysis than C-AMP | at concentrations substantially lower than C-AMP | act to lower blood pressure | – | – | kinase activation compared with C-AMP [5]: superior in kinase activation to C-AMP itself
2 | O=C(Nc1ccccc1)Nc1ncnc2c1nc(SCc1ccccc1)n2[C@@H]1O[C@@H]2COP(=O)(O)O[C@H]2[C@H]1O [Compound 15, 8-Benzylthio-N^6-(N-phenylcarbamoyl)adenosine 3',5'-cyclic phosphate] | – | more resistant to hydrolysis than C-AMP | – | act to lower blood pressure | 21 | 14 | inhibition of adenyl cyclase [7]: inhibit adenyl cyclase; kinase activation compared with C-AMP [5]: superior in kinase activation to C-AMP itself
3 | CCOC(=O)Nc1ncnc2c1ncn2[C@@H]1O[C@@H]2COP(=O)(O)O[C@H]2[C@H]1O [Compound 8, N^6-(Ethoxycarbonyl)adenosine 3'5'-cyclic phosphate] | at concentrations substantially lower than C-AMP | more resistant to hydrolysis than C-AMP | at concentrations substantially lower than C-AMP | act to lower blood pressure | 210 | 130 | rate of hydrolysis relative to C-AMP ([2]; rate as % that of C-AMP): 8%
4 | Nc1ncnc2c1nc(S)n2[C@@H]1O[C@@H]2COP(=O)(O)O[C@H]2[C@H]1O [8-thio derivative of C-AMP] | – | – | – | – | – | – | Ka' (highest value previously reported in the literature) [9]: 3.77
5 | CCCNC(=O)Nc1ncnc2c1ncn2[C@@H]1O[C@@H]2COP(=O)(O)O[C@H]2[C@H]1OC(=O)NCCC [Compound 3, N^6, 2'-O-bis-(N-Propylcarbamoyl)adenosine 3', 5'-cyclic phosphate sodium salt] | – | more resistant to hydrolysis than C-AMP | – | – | – | – | –
6 | CNC(=O)Nc1ncnc2c1nc(S)n2[C@@H]1O[C@@H]2COP(=O)(O)O[C@H]2[C@H]1OC(=O)NC [Compound 16, N^6,2'-O-bis-(N-Methylcarbamoyl)-8-mercaptoadenosine 3',5'-cyclic phosphate sodium salt] | – | more resistant to hydrolysis than C-AMP | – | – | – | – | –
7 | CNC(=O)Nc1ncnc2c1ncn2[C@@H]1O[C@@H]2COP(=O)(O)O[C@H]2[C@H]1O [Compound 5, N^6-(N-Methylcarbamoyl) adenosine 3',5'-cyclic phosphate] | at concentrations substantially lower than C-AMP | more resistant to hydrolysis than C-AMP | at concentrations substantially lower than C-AMP | act to lower blood pressure | – | – | –
8 | O=C(Nc1ccccc1)Nc1ncnc2c1ncn2[C@@H]1O[C@@H]2COP(=O)(O)O[C@H]2[C@H]1OC(=O)Nc1ccccc1 [Compound 4, N^6, 2'-O-bis-(N-Phenylcarbamoyl)adenosine 3',5'-cyclic phosphate sodium salt] | – | more resistant to hydrolysis than C-AMP | – | – | 190 | 93 | –
9 | Cn1c(=O)c2[nH]cnc2n(C)c1=O [Theophylline, reference compound] | – | – | – | – | 230 | 130 | –
10 | O=C(Nc1ccccc1)Nc1ncnc2c1nc(SCc1ccccc1)n2[C@@H]1O[C@@H]2COP(=O)(O)O[C@H]2[C@H]1OC(=O)Nc1ccccc1 [Compound 12, 8-Benzylthio-N^6,2'-O-bis-(N-phenylcarbamoyl) adenosine 3',5'-cyclic phosphate sodium salt] | – | more resistant to hydrolysis than C-AMP | – | – | 10 | 22 | –
11 | CNC(=O)Nc1ncnc2c1ncn2[C@@H]1O[C@@H]2COP(=O)(O)O[C@H]2[C@H]1OC(=O)NC [Compound 2, N^6, 2'-O-bis-(N-Methylcarbamoyl)adenosine 3',5'-cyclic phosphate sodium salt] | – | more resistant to hydrolysis than C-AMP | – | – | – | – | –
12 | CNC(=O)Nc1ncnc2c1nc(Br)n2[C@@H]1O[C@@H]2COP(=O)(O)O[C@H]2[C@H]1OC(=O)NC [Compound 11, 8-Bromo-N^6,2'-O-bis-(N-methylcarbamoyl)adenosine 3',5'-cyclic phosphate] | – | more resistant to hydrolysis than C-AMP | – | – | 130 | 260 | –
13 | O=C(Nc1ccccc1)Nc1ncnc2c1ncn2[C@@H]1O[C@@H]2COP(=O)(O)O[C@H]2[C@H]1O [Compound 7, N^6-(N-Phenylcarbamoyl)adenosine 3',5'-cyclic phosphate] | at concentrations substantially lower than C-AMP | more resistant to hydrolysis than C-AMP | at concentrations substantially lower than C-AMP | – | 160 | 22 | inhibition of adenyl cyclase [7]: inhibit adenyl cyclase; effect on heart rate [10]: without deleteriously affecting heart rate; persistence of inotropic action [10]: persistent in action; increase of cardiac output compared with aminophylline ([10]; compared with aminophylline): the equal of aminophylline in increasing cardiac output; Ka' (Ka for C-AMP/Ka for test compound) ([5]; Ka from Lineweaver-Burk plot, relative to C-AMP): 4.9; kinase activation compared with C-AMP [5]: superior in kinase activation to C-AMP itself; activation of protein kinase relative to C-AMP (times better) ([5]; bovine brain protein kinase, relative to C-AMP): approximately five
